# Results from patent US7763615B2, “Ecteinascidin analogs for use as antitumour agents” (priority 2001, dated 2010).
# Like-named read-outs stand apart in the source and are kept apart here.
# Columns and labels:
# [1] = system: H9c2 (2-1), normal rat cardiac muscle cells; conditions: 24 h
# H-MEC-1 = assay: Inhibition of cells growth by colorimetric assay (SRB), H-MEC-1; type: cell-based
# From the text: (§1) The finality of these assays is to interrupt the growth of a “in vitro” tumor cell culture by means of a continued exhibition of the cells to the sample to be testing.
# (§2) A colorimetric type of assay, using sulphorhodamine B (SRB) reaction has been adapted for a quantitative measurement of cell growth and viability [following the technique described by Philip Skehan, et al. (1990), New colorimetric cytotoxicity assay for anticancer drug screening, J. Natl. Cancer Inst., 82:1107-1112]
# (§3) This form of the assay employs 96 well cell culture microplates of 9 mm diameter (Faircloth, 1988; Mosmann, 1983). Most of the cell lines are obtained from American Type Culture Collection (ATCC) derived from different human cancer types.
# (§4) Cells are maintained in RPMI 1640 10% FBS, supplemented with 0.1 g/l penicillin and 0.1 g/l streptomycin sulphate and then incubated at 37° C., 5% CO2 and 98% humidity. For the experiments, cells were harvested from subconfluent cultures using trypsin and resuspended in fresh medium before plating.
# (§5) Cells are seeded in 96 well microtiter plates, at 5×10^3 cells per well in aliquots of 195 μl medium, and they are allowed to attach to the plate surface by growing in drug free medium for 18 hours. Afterward, samples are added in aliquots of 5 μl in a ranging from 10 to 10^−8 μg/ml, dissolved in DMSO/EtOH/PBS (0.5:0.5:99). After 48 hours exposure, the antitumor effect are measured by the SRB methodology: cells are fixed by adding 50 μl of cold 50% (wt/vol) trichloroacetic acid (TCA) and incubating for 60 minutes at 4° C. Plates are washed with deionized water and dried. One hundred μl of SRB solution (0.4% wt/vol in 1% acetic acid) is added to each microtiter well and incubated for 10 minutes at room temperature. Unbound SRB is removed by washing with 1% acetic acid. Plates are air dried and bound stain is solubilized with Tris buffer. Optical densities are read on a automated spectrophotometric plate reader at a single wavelength of 490 nm.
# (§6) The values for mean+/− SD of data from triplicate wells are calculated. Some parameters for cellular responses can be calculated: GI=growth inhibition, TGI=total growth inhibition (cytostatic effect) and LC=cell killing (cytotoxic effect).
# SK-OV3 = assay: Inhibition of cells growth by colorimetric assay (SRB), SK-OV3; type: cell-based
# From the text: as §1, §2, §3, §4, §5, §6
# LOVO = assay: cells; type: cell-based
# Method in brief: (§7)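 Readout: SRB OD490, triplicate wells. Setup: 5×10^3 cells/well, RPMI 1640 + 10% FBS, 37° C, 5% CO2; 18 h pre-attachment; 48 h sample exposure, 10 to 10^−8 μg/ml. Outputs GI, TGI (cytostatic), LC (cytotoxic).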
# LNCAP = assay: cells; type: cell-based
# Method in brief: as §7
# DU145 = assay: cells; type: cell-based
# Method in brief: as §7
# LOVO-DOX = assay: cells; type: cell-based
# Method in brief: as §7
# MEL-28 = assay: cells; type: cell-based; conditions: MEL-28, 48 hours exposure, SRB; for CC50: read-out: LC50
# Method in brief: as §7
# PANC-1 = assay: cells; type: cell-based; conditions: PANC-1, 48 hours exposure, SRB; for CC50: read-out: LC50
# Method in brief: as §7
# K562 = assay: cells; type: cell-based; conditions: K562, 48 hours exposure, SRB; for CC50: read-out: LC50
# Method in brief: as §7
# IGROV = assay: cells; type: cell-based; conditions: for GI50 / TGI: 48 hours exposure, SRB; for CC50: read-out: LC50, 48 hours exposure, SRB
# Method in brief: as §7
# IGROV-ET = assay: cells; type: cell-based
# Method in brief: as §7
# SK-BR3 = assay: cells; type: cell-based; conditions: SK-BR3, 48 hours exposure, SRB; for CC50: read-out: LC50
# Method in brief: as §7
# A549 = assay: cells; type: cell-based; conditions: A549, 48 hours exposure, SRB; for GI50: read-out: GI50; for CC50: read-out: LC50
# Method in brief: as §7
# HT29 = assay: cells; type: cell-based
# Method in brief: as §7
# [2] = system: AML-12, normal mouse liver cells; conditions: 24 h
# [3] = system: FDC-P1, normal mouse myelogeous stem cells; conditions: 24 h
# Protocol: In order to assess the cytotoxicity of the drugs to normal cells, we used 96 well plates plated at a density of 5000 cells per well (except for the FDC-P1 which were plated at 12,000 cells per well) with normal cell lines (ATCC, Table 1) maintained as per the directions of the ATCC: AML-12, normal mouse liver cells; NRK-52E, normal rat kidney cells; L8, normal rat skeletal muscle cells; FDC-P1, normal mouse myelogeous stem cells; and H9c2 (2-1), normal rat cardiac muscle cells. The cells in each plate were permitted to settle overnight before adding the test drug.
# To each well (100 μl medium) 10 μl of drug in media was added at varying concentrations (1×10-10-0.01 mg/ml final concentration) and further incubated overnight at 37° C. with 5% CO2. After 24 h the following assays were performed. All experiments were repeated at least 3 times and were assayed in duplicate.
# MTS assay (CellTiter 96 aqueous) was performed according to the manufacturer's (Promega) directions (for all cell types). Cell viability (mitochondrial activity) is determined via enzymatic conversion of the formazan substrate.
# [4] = system: NRK-52E, normal rat kidney cells; conditions: 24 h
# [5] = system: L8, normal rat skeletal muscle cells; conditions: 24 h
# [6] = H-MEC-1, 48 hours exposure, SRB
# [7] = Homo sapiens, LoVo, 48 h, 48 hours exposure, SRB
# [8] = Homo sapiens, LNCaP, 48 h, 48 hours exposure, SRB
# [9] = LOVO-DOX, 48 hours exposure, SRB
# [10] = IGROV-ET, 48 hours exposure, SRB
# [11] = Homo sapiens, HT-29, 48 h, HT29, 48 hours exposure, SRB
structure (smiles),measurement,setting,value
COc1c(C)cc2c(c1O)[C@@H]1C3[C@@H]4SC[C@]5(NC(C)Cc6c5[nH]c5ccc(O)cc65)C(=O)COC[C@@H](c5c6c(c(C)c(OC(C)=O)c54)OCO6)N3[C@@H](O)[C@H](C2)N1C (stereo partly shown) [Compound 37],Heart,[1],1.74E−08
same,TGI,H-MEC-1; [6],3.58E−08 Molar
same,GI50,"H-MEC-1; Homo sapiens, HMEC-1, 48 h, H-MEC-1, 48 hours exposure, SRB",2.22 nM
same,CC50,"H-MEC-1; Homo sapiens, HMEC-1, 48 h, read-out: LC50, H-MEC-1, 48 hours exposure, SRB",12700 nM
same,GI50,"SK-OV3; Homo sapiens, SK-OV-3, 48 h, SK-OV3, 48 hours exposure, SRB",3.57 nM
same,CC50,"SK-OV3; Homo sapiens, SK-OV-3, 48 h, read-out: LC50, SK-OV3, 48 hours exposure, SRB",12700 nM
same,TGI,"SK-OV3; SK-OV3, 48 hours exposure, SRB",1.07E−08 Molar
same,GI50,LOVO; [7],2.92 nM
same,IC (TGI),LOVO; [7],8.97 nM
same,CC50,"LOVO; Homo sapiens, LoVo, 48 h, read-out: LC50, LOVO, 48 hours exposure, SRB",12700 nM
same,GI50,LNCAP; [8],0.26 nM
same,IC (TGI),LNCAP; [8],0.856 nM
same,CC50,"LNCAP; Homo sapiens, LNCaP, 48 h, read-out: LC50, LNCAP, 48 hours exposure, SRB",4.75 nM
same,GI50,"DU145; DU145, 48 hours exposure, SRB",4.6 nM
same,IC (TGI),"DU145; Homo sapiens, DU-145, 48 h, DU145, 48 hours exposure, SRB",10.6 nM
same,CC50,"DU145; Homo sapiens, DU-145, 48 h, read-out: LC50, DU145, 48 hours exposure, SRB",12700 nM
same,GI50,"LOVO-DOX; Homo sapiens, 48 h, LOVO-DOX, 48 hours exposure, SRB",61.7 nM
same,CC50,"LOVO-DOX; Homo sapiens, 48 h, read-out: LC50, LOVO-DOX, 48 hours exposure, SRB",12700 nM
same,TGI,LOVO-DOX; [9],4.10E−07 Molar
same,GI50,"MEL-28; Homo sapiens, SK-MEL-28, 48 h",2.4 nM
same,IC (TGI),"MEL-28; Homo sapiens, SK-MEL-28, 48 h",6.82 nM
same,CC50,MEL-28,33.5 nM
same,GI50,"PANC-1; Homo sapiens, PANC-1, 48 h",3.12 nM
same,IC (TGI),"PANC-1; Homo sapiens, PANC-1, 48 h",11.8 nM
same,CC50,PANC-1,3020 nM
same,GI50,"K562; Homo sapiens, K562, 48 h",0.492 nM
same,IC (TGI),"K562; Homo sapiens, K562, 48 h",1.36 nM
same,CC50,K562,12.7 nM
same,GI50,IGROV,2.82 nM
same,TGI,IGROV,7.06E−09 Molar
same,CC50,IGROV,613 nM
same,IC (TGI),"IGROV-ET; Homo sapiens, 48 h, IGROV-ET, 48 hours exposure, SRB",119 nM
same,CC50,"IGROV-ET; Homo sapiens, 48 h, read-out: LC50, IGROV-ET, 48 hours exposure, SRB",12700 nM
same,GI50,IGROV-ET; [10],37.6 nM
same,GI50,SK-BR3,2.96 nM
same,TGI,SK-BR3,6.80E−09 Molar
same,CC50,SK-BR3,141 nM
same,TGI,A549,2.17E−08 Molar
same,GI50,"A549; Homo sapiens, A549, 48 h",4.23 nM
same,CC50,A549,138 nM
same,GI50,HT29; [11],3.71 nM
same,IC (TGI),HT29; [11],14 nM
same,CC50,"HT29; Homo sapiens, HT-29, 48 h, read-out: LC50, HT29, 48 hours exposure, SRB",12700 nM
same,Liver,[2],5.46E−09
same,Myelo,[3],4.59E−09
same,Kidney,[4],2.92E−08
same,Skeletal,[5],2.22E−08
COc1c(C)cc2c(c1O)[C@@H]1C3[C@@H]4SC[C@]5(NC(C)Cc6c5[nH]c5ccc(O)cc65)C(=O)COC[C@@H](c5c6c(c(C)c(OC(C)=O)c54)OCO6)N3[C@@H](O)[C@H](C2)N1C (stereo partly shown) [Compound 38],Heart,[1],2.96E−09
same,GI50,H-MEC-1; [6],3.06 nM
same,TGI,H-MEC-1; [6],8.93E−09 Molar
same,CC50,"H-MEC-1; read-out: LC50, H-MEC-1, 48 hours exposure, SRB",12700 nM
same,GI50,"SK-OV3; SK-OV3, 48 hours exposure, SRB",2.55 nM
same,TGI,"SK-OV3; SK-OV3, 48 hours exposure, SRB",7.13E−09 Molar
same,CC50,"SK-OV3; read-out: LC50, SK-OV3, 48 hours exposure, SRB",12700 nM
same,GI50,"LOVO; LOVO, 48 hours exposure, SRB",3.55 nM
same,TGI,"LOVO; LOVO, 48 hours exposure, SRB",1.03E−08 Molar
same,CC50,"LOVO; read-out: LC50, LOVO, 48 hours exposure, SRB",12700 nM
same,GI50,"LNCAP; LNCAP, 48 hours exposure, SRB",0.2 nM
same,TGI,"LNCAP; LNCAP, 48 hours exposure, SRB",7.21E−10 Molar
same,CC50,"LNCAP; read-out: LC50, LNCAP, 48 hours exposure, SRB",3.07 nM
same,GI50,"DU145; DU145, 48 hours exposure, SRB",2.04 nM
same,TGI,"DU145; DU145, 48 hours exposure, SRB",6.80E−09 Molar
same,CC50,"DU145; read-out: LC50, DU145, 48 hours exposure, SRB",12700 nM
same,GI50,LOVO-DOX; [9],55.3 nM
same,TGI,LOVO-DOX; [9],8.42E−07 Molar
same,CC50,"LOVO-DOX; read-out: LC50, LOVO-DOX, 48 hours exposure, SRB",12700 nM
same,GI50,MEL-28,2.73 nM
same,TGI,MEL-28,5.33E−09 Molar
same,CC50,MEL-28,10.4 nM
same,GI50,PANC-1,3.22 nM
same,TGI,PANC-1,8.37E−09 Molar
same,CC50,PANC-1,428 nM
same,GI50,K562,0.422 nM
same,TGI,K562,8.18E−10 Molar
same,CC50,K562,3.15 nM
same,GI50,IGROV,0.757 nM
same,TGI,IGROV,2.89E−09 Molar
same,CC50,IGROV,8.4 nM
same,GI50,IGROV-ET; [10],15.7 nM
same,TGI,IGROV-ET; [10],6.59E−08 Molar
same,CC50,"IGROV-ET; read-out: LC50, IGROV-ET, 48 hours exposure, SRB",6510 nM
same,GI50,SK-BR3,1.07 nM
same,TGI,SK-BR3,3.38E−09 Molar
same,CC50,SK-BR3,9.54 nM
same,TGI,A549,5.24E−09 Molar
same,GI50,A549,2.38 nM
same,CC50,A549,11.5 nM
same,GI50,"HT29; HT29, 48 hours exposure, SRB",4.2 nM
same,TGI,"HT29; HT29, 48 hours exposure, SRB",1.69E−08 Molar
same,CC50,"HT29; read-out: LC50, HT29, 48 hours exposure, SRB",12700 nM
same,Liver,[2],1.39E−10
same,Myelo,[3],9.66E−11
same,Kidney,[4],9.85E−08
same,Skeletal,[5],1.29E−08
